Experiments:
[1] = human, in vivo
Source text: Patients were 18 years old or older and outpatients judged free of any imminently-critical medical problems. All patents received a complete physical examination and medical history evaluation. Pretreatment laboratory studies included a CBC with differential and platelet count, a biochemical screening profile, chest X-ray, and pulmonary function tests including spirometry and measurement of diffusion capacity.
Each patient was issued a device at the start of the study. These devices were labeled with the patient's code number. The devices are simple to operate and their sterility was ensured as components were replaced after a single use. New sterile plastic reservoirs for the drug solution and new sterile suction rods were used for each treatment.
Each aerosol treatment was given over 15-30 minutes. […] 1.0, 1.5,or 2.0 ml aliquots were added to the nebulizer reservoir for doses of 30, 45, or 60 mg, respectively. Sterile pyrogen-free water was added to yield a total volume of 3.0 ml. Treatments were administered by a physician or registered nurse.
Signs of systemic toxicity were monitored. To detect adverse effects on the lungs, pulmonary function was monitored.
All problems were judged a concomitant illness or adverse reaction based on the following definitions. […]
Patients were interviewed before and after each treatment and any adverse reactions, complaints, or comments recorded. […]

[2] = system: Pneumocystis carinii; conditions: patients with AIDS, IV or IM 4 mg/kg/day, 14-21 days; cited from earlier work
[3] = system: Pneumocystis carinii; experiment: Experimental rat model of Pneumocystis carinii pneumonia (PCP); format: in vivo; conditions: for Cysts/hpf in lung at necropsy: high power field 400×
Protocol: Rats were treated in groups of four. […] Doses in all trials were calculated as above.
Treatment regimens were tested in the standard animal model of PCP (6). To induce infection with P. carinii, rats were immunosuppresed with steriods for twelve weeks while restricted to a low-protein diet and tetracycline. Administration of a test regimen was initiated early during the induction period to determine its effectiveness in preventing PCP and was initiated late during the induction period to determine its effectiveness in treating PCP. Male Sprague-Dawley rats weighing 175-225 g were used. Rats were given twice weekly subcutaneous injections of 75 mg/kg of cortisone acetate, were maintained on an 8% protein diet, and were treated with tetracycline via their drinking water. Rats were sacrificed after twelve weeks of this regimen and the extent of infection was judged by counting cysts in toluidine blue 0-stained smears of lung homogenates. Lung homogenates were prepared by combining a weighed portion of tissue with nine ml of 0.1N HCl per g.

[4] = Trial I, 0.4 mg/kg aerosol weekly, wk 5-11, mean ± standard deviation
[5] = Trial I, 4.0 mg/kg IM weekly, wk 5-11, mean ± standard deviation
[6] = Trial I, prophylactic aerosol 0.4 mg/kg weekly, weeks 5-11
[7] = Trial II, 0.2 mg/kg aerosol weekly, wk 7-11, mean ± standard deviation
[8] = Trial II, 0.4 mg/kg aerosol daily, 4×, wk 10, mean ± standard deviation
[9] = Trial III, 0.4 mg/kg aerosol biweekly, wks 7, 9, 11, mean ± standard deviation
[10] = Trial III, 0.4 mg/kg aerosol daily, 4×, wk 12, mean ± standard deviation
[11] = Trial III, 0.8 mg/kg aerosol monthly, wks 4, 8, mean ± standard deviation

N=C(N)c1ccc(OCCCCCOc2ccc(C(=N)N)cc2)cc1 [pentamidine, Pentamidine isethionate]
tolerability of treatments [1]: well tolerated | treatment of PCP infection [2]: highly effective in treatment of PCP infection | Cysts/hpf in lung at necropsy ([3]; Trial I, 0.4 mg/kg aerosol weekly, wk 5-11): < 1 Cysts/hpf | Lung weight at necropsy [3, 4]: 1.94 ± 0.21 g | Pent in lung at necropsy [3, 4]: 29.7 ± 7.1 µg/g | Cysts/hpf in lung at necropsy [3, 5]: 102 ± 88 Cysts/hpf | Lung weight at necropsy [3, 5]: 3.28 ± 1.15 g | Pent in lung at necropsy [3, 5]: 4.5 ± 1.7 µg/g | effectiveness in prevention of PCP, aerosol versus IM ([3]; Trial I, aerosol 0.4 mg/kg vs IM 4.0 mg/kg weekly): more effective in prevention of PCP than tenfold higher doses of IM pentamidine | cysts of P. carinii in stained smears of lung homogenates [3, 6]: rare or absent | lung weight and appearance [3, 6]: normal in weight and appearance | severity of infection versus control animals [3, 6]: more than a thousandfold less severe infection than was seen in control animals | Lung weight at necropsy [3, 7]: 1.43 ± 0.31 g | Pent in lung at necropsy [3, 7]: 15.2 ± 5.0 µg/g | Cysts/hpf in lung at necropsy [3, 8]: 20.8 ± 30.8 Cysts/hpf | Lung weight at necropsy [3, 8]: 1.20 ± 0.20 g | Pent in lung at necropsy [3, 8]: 15.8 ± 10.9 µg/g | effectiveness of prophylactic regimen ([3]; Trial II, aerosol weekly, weeks 7-11, 0.1 mg/kg): effective | Cysts/hpf in lung at necropsy [3, 9]: 48 ± 109 Cysts/hpf | Lung weight at necropsy [3, 9]: 1.41 ± 0.64 g | Pent in lung at necropsy [3, 9]: 13.4 ± 7.9 µg/g | Cysts/hpf in lung at necropsy [3, 10]: 188 ± 255 Cysts/hpf | Lung weight at necropsy [3, 10]: 2.08 ± 0.68 g | Pent in lung at necropsy [3, 10]: 8.3 ± 6.4 µg/g | Cysts/hpf in lung at necropsy [3, 11]: 4.6 ± 4.2 Cysts/hpf | Lung weight at necropsy [3, 11]: 1.26 ± 0.26 g | Pent in lung at necropsy [3, 11]: 16.1 ± 3.3 µg/g | effectiveness of prophylactic regimens ([3]; Trial III, aerosol 0.8 mg/kg monthly and 0.4 mg/kg biweekly): effective | prevention of PCP in the animal model ([3]; low and infrequent aerosol treatment): highly effective in prevention of PCP | retention of aerosol pentamidine ([3]; normal animals and early prophylactic doses vs animals treated with severe pneumonia): greater in normal animals and in animals that received early prophylactic doses than it was in animals who were treated when they had severe pneumonia | effectiveness of therapeutic regimen ([3]; rat, in vivo): partially effective | number of cysts versus lung pentamidine concentration ([3]; within the prophylaxis and treatment groups): the lowest number of cysts were found in animals with the highest concentrations of pentamidine in the lung

Reference: patent US5262157A (priority 1988, dated 1993)
